Read-outs that look alike come from different tables or passages of the source.
How the values were obtained:
Assay type in all cases: cell-based, human
[1] = system: HS 578T
Procedure, shortened: (§1)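 Tested in five doses (top 100 μM, lowest 0.01 μM) within the 60 Cell Screen; COMPARE used TGI responses relative to known tubulin inhibitors.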

[2] = system: SK-OV-3
Procedure, shortened: as §1

[3] = system: NCI/ADR-RES
Procedure, shortened: as §1

[4] = system: NCI-H460
Procedure, shortened: as §1

[5] = system: MOLT-4
Procedure, shortened: as §1

[6] = system: OVCAR-5
Procedure, shortened: as §1

[7] = system: HOP-92
Procedure, shortened: as §1

[8] = system: MCF7
Procedure, shortened: as §1

[9] = system: NCI-H23
Procedure, shortened: as §1

[10] = system: HCT-116
Procedure, shortened: as §1

[11] = system: U251
Procedure, shortened: as §1

[12] = system: 786-0
Procedure, shortened: as §1

[13] = system: SK-MEL-28
Procedure, shortened: as §1

[14] = system: SN12C
Procedure, shortened: as §1

[15] = system: SK-MEL-2
Procedure, shortened: as §1

[16] = system: NCI-H522
Procedure, shortened: as §1

[17] = system: TK-10
Procedure, shortened: (§2)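 NCI-60 panel, 5-dose format (100 μM → 0.01 μM, tenfold steps). TGI values used for COMPARE vs. known tubulin inhibitors.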

[18] = system: SF-295
Procedure, shortened: as §1

[19] = system: HCT-15
Procedure, shortened: as §1

[20] = system: ACHN
Procedure, shortened: as §2

[21] = system: UACC-257
Procedure, shortened: as §1

[22] = system: SNB-19
Procedure, shortened: as §2

[23] = system: LOX IMVI
Procedure, shortened: as §2

[24] = system: COLO 205
Procedure, shortened: as §1

[25] = system: HOP-62
Procedure, shortened: as §2

[26] = system: M14
Procedure, shortened: as §1

[27] = system: MALME-3M
Procedure, shortened: as §1

[28] = system: CCRF-CEM
Procedure, shortened: as §2

COc1cc(C)c(-c2ccc(OC)c(=O)cc2C)c(OC)c1OC (single isomer, unassigned) [(aR)-6]
-5.18 Molar: Log10TGI [15]
-5.27 Molar: Log10TGI [16] | Log10GI50 [20] | Log10GI50 ([20]; listed as (aR)-DM-MTC)
850 nM: GI50 ([26]; Homo sapiens)
-4.74 Molar: Log10LC50 [24]
-5.76 Molar: Log10GI50 [3] | Log10GI50 ([3]; listed as (aR)-DM-MTC) | Log10GI50 [18] | Log10GI50 ([18]; listed as (aR)-DM-MTC) | Log10GI50 [24] | Log10GI50 ([24]; listed as (aR)-DM-MTC)
-5.58 Molar: Log10GI50 [5] | Log10GI50 ([5]; listed as (aR)-DM-MTC)
1860 nM: GI50 ([16]; Homo sapiens)
4370 nM: GI50 ([6]; Homo sapiens)
66100 nM: GI50 ([17]; Homo sapiens)
2820 nM: GI50 ([4]; Homo sapiens)
-5.46 Molar: Log10GI50 [14] | Log10GI50 ([14]; listed as (aR)-DM-MTC)
5370 nM: GI50 ([20]; Homo sapiens)
-6.07 Molar: Log10GI50 [26] | Log10GI50 ([26]; listed as (aR)-DM-MTC)
4470 nM: GI50 ([12]; Homo sapiens)
-5.69 Molar: Log10GI50 [23] | Log10GI50 ([23]; listed as (aR)-DM-MTC)
-5.11 Molar: Log10GI50 [21] | Log10GI50 ([21]; listed as (aR)-DM-MTC)
680 nM: GI50 ([19]; Homo sapiens)
3550 nM: GI50 ([7]; Homo sapiens)
-4.18 Molar: Log10GI50 [17] | Log10GI50 ([17]; listed as (aR)-DM-MTC)
4070 nM: GI50 ([9]; Homo sapiens)
-5.59 Molar: Log10GI50 [2] | Log10GI50 ([2]; listed as (aR)-DM-MTC)
-5.81 Molar: Log10GI50 [1] | Log10GI50 ([1]; listed as (aR)-DM-MTC)
3800 nM: GI50 ([25]; Homo sapiens)
-5.35 Molar: Log10GI50 [12] | Log10GI50 ([12]; listed as (aR)-DM-MTC) | Log10TGI [24]
1550 nM: GI50 ([1]; Homo sapiens)
7760 nM: GI50 ([21]; Homo sapiens)
-5.39 Molar: Log10GI50 [9] | Log10GI50 ([9]; listed as (aR)-DM-MTC)
2570 nM: GI50 ([2]; Homo sapiens)
-6.17 Molar: Log10GI50 [19] | Log10GI50 ([19]; listed as (aR)-DM-MTC)
-6.11 Molar: Log10GI50 [8] | Log10GI50 ([8]; listed as (aR)-DM-MTC)
2950 nM: GI50 ([11]; Homo sapiens, U-251) | GI50 ([22]; Homo sapiens)
-6.05 Molar: Log10GI50 [15] | Log10GI50 ([15]; listed as (aR)-DM-MTC)
1740 nM: GI50 ([3]; Homo sapiens) | GI50 ([18]; Homo sapiens) | GI50 ([24]; Homo sapiens)
-5.42 Molar: Log10GI50 [25] | Log10GI50 ([25]; listed as (aR)-DM-MTC)
-5.73 Molar: Log10GI50 [16] | Log10GI50 ([16]; listed as (aR)-DM-MTC)
2040 nM: GI50 ([23]; Homo sapiens)
-5.71 Molar: Log10GI50 [10] | Log10GI50 ([10]; listed as (aR)-DM-MTC) | Log10GI50 [28] | Log10GI50 ([28]; listed as (aR)-DM-MTC)
> -4.00 Molar: Log10LC50 [1] | Log10LC50 [2] | Log10TGI [2] | Log10LC50 [3] | Log10LC50 [4] | Log10TGI [4] | Log10LC50 [5] | Log10TGI [5] | Log10LC50 [6] | Log10TGI [6] | Log10LC50 [7] | Log10TGI [7] | Log10LC50 [8] | Log10TGI [8] | Log10LC50 [9] | Log10TGI [9] | Log10LC50 [10] | Log10TGI [10] | Log10LC50 [11] | Log10TGI [11] | Log10LC50 [12] | Log10TGI [12] | Log10LC50 [13] | Log10TGI [13] | Log10LC50 [14] | Log10TGI [14] | Log10LC50 [15] | Log10LC50 [16] | Log10LC50 [17] | Log10TGI [17] | Log10LC50 [18] | Log10TGI [18] | Log10LC50 [19] | Log10TGI [19] | Log10LC50 [20] | Log10TGI [20] | Log10LC50 [21] | Log10TGI [21] | Log10LC50 [22] | Log10TGI [22] | Log10LC50 [23] | Log10TGI [23] | Log10LC50 [25] | Log10TGI [25] | Log10LC50 [26] | Log10TGI [26] | Log10LC50 [27] | Log10TGI [27] | Log10LC50 [28] | Log10TGI [28]
-5.45 Molar: Log10GI50 [7] | Log10GI50 ([7]; listed as (aR)-DM-MTC)
2630 nM: GI50 ([5]; Homo sapiens)
-5.53 Molar: Log10GI50 [11] | Log10GI50 ([11]; listed as (aR)-DM-MTC) | Log10GI50 [22] | Log10GI50 ([22]; listed as (aR)-DM-MTC)
3470 nM: GI50 ([14]; Homo sapiens)
-5.36 Molar: Log10GI50 [6] | Log10GI50 ([6]; listed as (aR)-DM-MTC)
890 nM: GI50 ([15]; Homo sapiens)
1950 nM: GI50 ([10]; Homo sapiens) | GI50 ([28]; Homo sapiens)
-5.55 Molar: Log10GI50 [4] | Log10GI50 ([4]; listed as (aR)-DM-MTC)
780 nM: GI50 ([8]; Homo sapiens)

COc1cc(C)c(-c2ccc(=O)c(OC)cc2C)c(OC)c1OC (single isomer, unassigned) [(aR)-iso-6]
> -4.00 Molar: Log10GI50 [1] | Log10LC50 [1] | Log10TGI [1] | Log10GI50 [2] | Log10LC50 [2] | Log10TGI [2] | Log10GI50 [3] | Log10LC50 [3] | Log10TGI [3] | Log10GI50 [4] | Log10LC50 [4] | Log10TGI [4] | Log10GI50 [5] | Log10LC50 [5] | Log10TGI [5] | Log10GI50 [6] | Log10LC50 [6] | Log10TGI [6] | Log10GI50 [7] | Log10LC50 [7] | Log10TGI [7] | Log10GI50 [8] | Log10LC50 [8] | Log10TGI [8] | Log10GI50 [9] | Log10LC50 [9] | Log10TGI [9] | Log10GI50 [10] | Log10LC50 [10] | Log10TGI [10] | Log10GI50 [11] | Log10LC50 [11] | Log10TGI [11] | Log10GI50 [12] | Log10LC50 [12] | Log10TGI [12] | Log10GI50 [13] | Log10LC50 [13] | Log10TGI [13] | Log10GI50 [14] | Log10LC50 [14] | Log10TGI [14] | Log10GI50 [15] | Log10LC50 [15] | Log10TGI [15] | Log10GI50 [16] | Log10LC50 [16] | Log10TGI [16] | Log10GI50 [17] | Log10LC50 [17] | Log10TGI [17] | Log10GI50 [18] | Log10LC50 [18] | Log10TGI [18] | Log10GI50 [19] | Log10LC50 [19] | Log10TGI [19] | Log10GI50 [20] | Log10LC50 [20] | Log10TGI [20] | Log10GI50 [21] | Log10LC50 [21] | Log10TGI [21] | Log10GI50 [22] | Log10LC50 [22] | Log10TGI [22] | Log10GI50 [23] | Log10LC50 [23] | Log10TGI [23] | Log10GI50 [24] | Log10LC50 [24] | Log10TGI [24] | Log10GI50 [25] | Log10LC50 [25] | Log10TGI [25] | Log10GI50 [26] | Log10LC50 [26] | Log10TGI [26] | Log10GI50 [27] | Log10LC50 [27] | Log10TGI [27] | Log10GI50 [28] | Log10LC50 [28] | Log10TGI [28]

— article PMC12150326 (The Journal of Organic Chemistry, 2025)
